Laboratory results reported in ChEMBL document CHEMBL3880440, “Antagonists of the toll-like receptor 1/2 complex” (2014).
Activity calls are given as the source filed them. The calls are words filed in the database; no cut-off is given here.

Key:
[1] = biological target: T1, Toll-like receptor 1/2 (Mus musculus) (UniProt Q9QUN7+Q9EPQ1); assay: Antagonist activity at TLR1/2 in mouse RAW264.7 cells assessed as inhibition of Pam3CSK4-induced receptor activation by measuring NO production at 3 uM after 24 hrs; format: cell-based
[2] = Cytotoxicity against mouse RAW264.7 cells assessed as decrease in cell viability at 3 uM by MTT assay; format: cell-based; conditions: raw264.7, 3 µM
Toll-like receptor 1/2 = Toll-like receptor 1/2 (Mus musculus, UniProt Q9EPQ1+Q9QUN7); assay: (§1) Antagonist activity at TLR1/2 in mouse RAW264.7 cells assessed as inhibition of Pam3CSK4-induced receptor activation by measuring NO production after 24 hrs; format: cell-based
[3] = biological target: T1, Toll-like receptor 1/2 (Mus musculus); assay: as §1; format: cell-based
[4] = Cytotoxicity against mouse RAW264.7 cells assessed as decrease in cell viability at 8 uM by MTT assay; format: cell-based; conditions: raw264.7, 8 µM
RAW264.7 [5] = assay: Inhibition of Pam3CSK4-induced IL-1beta production in mouse RAW264.7 cells at 8 uM after 24 hrs by ELISA; format: functional, cell-based
RAW264.7 [6] = assay: Inhibition of Pam3CSK4-induced TNF-alpha production in mouse RAW264.7 cells at 8 uM after 24 hrs by ELISA; format: functional, cell-based
[7] = biological target: Toll-like receptor 1/2 (Homo sapiens) (UniProt O60603+Q15399); assay: Antagonist activity at TLR1/2 in primary microglial cells (unknown origin) assessed as reduction in Pam3CSK4-induced IL-1beta mRNA expression level after 2 hrs; format: cell-based
[8] = Antiinflammatory activity in hippocampus (unknown origin) assessed as inhibition of Pam3CSK4-induced IL-1beta mRNA expression level at 5 to 50 ng coadministered with Pam3CSK4 via intra-cisterna magna measured after 2 hrs by RT-PCR analysis; format: functional
[9] = Antiinflammatory activity in hippocampus (unknown origin) assessed as inhibition of Pam3CSK4-induced TNF-alpha mRNA expression level at 5 to 50 ng coadministered with Pam3CSK4 via intra-cisterna magna measured after 2 hrs by RT-PCR analysis; format: functional
[10] = Antiinflammatory activity in hippocampus (unknown origin) assessed as inhibition of Pam3CSK4-induced IL-6 mRNA expression level at 5 to 50 ng coadministered with Pam3CSK4 via intra-cisterna magna measured after 2 hrs by RT-PCR analysis; format: functional

Toll-like receptor 1/2, sequence (Q9QUN7 whole entry): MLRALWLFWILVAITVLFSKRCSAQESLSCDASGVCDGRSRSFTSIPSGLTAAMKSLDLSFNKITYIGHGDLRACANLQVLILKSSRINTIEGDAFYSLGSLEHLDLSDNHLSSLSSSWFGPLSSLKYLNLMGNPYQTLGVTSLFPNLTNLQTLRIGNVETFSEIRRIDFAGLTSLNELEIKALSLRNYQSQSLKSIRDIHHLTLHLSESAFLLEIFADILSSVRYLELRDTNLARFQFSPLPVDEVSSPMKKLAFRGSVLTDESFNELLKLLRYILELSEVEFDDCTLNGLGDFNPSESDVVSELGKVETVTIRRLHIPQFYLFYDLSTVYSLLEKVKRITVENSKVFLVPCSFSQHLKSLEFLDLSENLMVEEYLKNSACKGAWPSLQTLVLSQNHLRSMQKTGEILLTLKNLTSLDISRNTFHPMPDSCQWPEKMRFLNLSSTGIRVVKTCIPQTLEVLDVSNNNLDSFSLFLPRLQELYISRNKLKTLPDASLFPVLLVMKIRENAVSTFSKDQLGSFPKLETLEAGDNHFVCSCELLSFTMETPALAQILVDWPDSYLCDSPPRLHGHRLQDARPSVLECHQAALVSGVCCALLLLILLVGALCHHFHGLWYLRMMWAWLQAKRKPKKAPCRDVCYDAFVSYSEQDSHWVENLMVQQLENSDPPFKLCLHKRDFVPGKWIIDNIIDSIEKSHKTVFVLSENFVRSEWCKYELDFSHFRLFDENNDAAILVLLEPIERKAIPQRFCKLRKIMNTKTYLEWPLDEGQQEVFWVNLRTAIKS
Toll-like receptor 1/2, sequence (Q9EPQ1 whole entry): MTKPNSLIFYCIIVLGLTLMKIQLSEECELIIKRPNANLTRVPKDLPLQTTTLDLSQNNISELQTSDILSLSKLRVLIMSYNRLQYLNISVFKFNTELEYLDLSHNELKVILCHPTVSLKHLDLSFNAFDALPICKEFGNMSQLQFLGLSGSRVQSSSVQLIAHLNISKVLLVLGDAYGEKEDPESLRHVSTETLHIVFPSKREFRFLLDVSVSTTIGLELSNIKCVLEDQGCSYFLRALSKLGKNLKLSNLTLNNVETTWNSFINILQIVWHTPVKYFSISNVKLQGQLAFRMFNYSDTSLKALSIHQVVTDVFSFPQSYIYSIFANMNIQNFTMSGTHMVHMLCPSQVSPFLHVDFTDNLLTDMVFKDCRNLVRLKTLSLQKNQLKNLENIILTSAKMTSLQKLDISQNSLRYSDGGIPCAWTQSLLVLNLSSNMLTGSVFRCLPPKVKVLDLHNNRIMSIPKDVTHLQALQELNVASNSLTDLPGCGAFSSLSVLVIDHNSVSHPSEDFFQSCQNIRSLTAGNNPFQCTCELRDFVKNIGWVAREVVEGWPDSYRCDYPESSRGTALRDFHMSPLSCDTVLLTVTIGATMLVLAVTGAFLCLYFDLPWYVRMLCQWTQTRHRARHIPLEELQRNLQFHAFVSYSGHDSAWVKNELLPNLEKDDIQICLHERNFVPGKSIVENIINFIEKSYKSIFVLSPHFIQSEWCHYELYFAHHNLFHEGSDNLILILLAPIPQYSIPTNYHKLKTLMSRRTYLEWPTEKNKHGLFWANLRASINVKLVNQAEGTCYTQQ

SMILES | inhibition [1] [%] | Activity [2] | IC50 (Toll-like receptor 1/2) [µM] | other results
O=[N+]([O-])c1cc(Cl)cc2c1nc(NCCO)c1ccccc12 | > 70 | Non-Toxic |  | 
COc1cc2cc(C(=O)OC(C)C)cc(O)c(=O)c2c(O)c1O |  |  | 2.47 | 
O=C(Nc1ccc(Cl)c(Cl)c1)Nc1ccccc1O | > 70 | Non-Toxic |  | 
CCOC(=O)c1cc(O)c(=O)c2c(O)c(O)c(OC)cc2c1 |  |  | 2.83 | 
C=C(C)[C@H]1Cc2c(ccc3c2O[C@@H]2COc4cc(OC)c(OC)cc4[C@@H]2C3=O)O1 [ROTENONE] | > 70 | Non-Toxic |  | 
O=c1c(O)cccc2ccc(O)c(O)c12 |  |  | 2.25 | 
CC(=O)Oc1cc2cccc(O)c(=O)c2c(O)c1O |  |  | 4.83 | 
Cc1cc(O)c(O)c2c(=O)c(O)cccc12 |  |  | 3.13 | 
COc1cccc(NC(S)=Nc2ccc(O)cc2)c1 | > 70 | Non-Toxic |  | 
CC(=O)/C=C/Nc1ccccc1O | > 70 | Non-Toxic |  | 
CCCCCCCCCCCCCCOC(=O)c1cc(O)c(=O)c2c(O)c(O)c(OC)cc2c1 |  |  | 3.24 | 
CCCCNC(=O)c1cc(O)c(=O)c2c(O)c(O)c(OC)cc2c1 |  |  | 1.26 | 
CCCCCCCCCCOC(=O)c1cc(O)c(=O)c2c(O)c(O)c(OC)cc2c1 |  |  | 1.01 | 
O=c1c(O)cccc2cc(F)c(O)c(O)c12 |  |  | 22.7 | 
O=C(/C=C/c1ccc(O)c(O)c1)c1ccccc1O | > 70 | Non-Toxic |  | 
COc1cc2cccc(OC)c(=O)c2c(O)c1OC |  |  | 11.7 | 
CN1CCN(C(=O)/C=C/c2ccc([N+](=O)[O-])o2)CC1 | > 70 | Non-Toxic |  | 
O=c1c(O)cccc2cc(O)c(O)c(O)c12 [PURPUROGALLIN] | > 70 | Non-Toxic |  | 
CCCCOC(=O)c1cc(O)c(=O)c2c(O)c(O)c(OC)cc2c1 |  |  | 2.83 | 
CC(=O)Oc1cc2cccc(OC(C)=O)c(=O)c2c(OC(C)=O)c1OC(C)=O |  |  | 2.35 | 
COc1cc2c(c(OC)c1OC)C(=O)C1(OC)C=CC2C2C(=O)OC(=O)C21 (stereo not given) |  |  | 74.6 | 
CC(=O)Oc1cc2c(c(OC(C)=O)c1OC(C)=O)C(=O)C1(OC(C)=O)C=CC2C2C(=O)OC(=O)C21 (stereo not given) |  |  | 14.8 | 
CCCCCCCCOC(=O)c1cc(O)c(=O)c2c(O)c(O)c(OC)cc2c1 |  |  | 0.72 | 
O=C(O)c1cc(O)c(=O)c2c(O)c(O)ccc2c1 [7-DESHYDROXYPYROGALLIN-4-CARBOXYLIC ACID] |  |  | 16.5 | 
CCCCCCOC(=O)c1cc(O)c(=O)c2c(O)c(O)c(OC)cc2c1 | > 70 |  |  | inhibition [3]: Dose-dependent effect; Activity [4]: Non-Toxic; inhibition (RAW264.7 [5]): Active; inhibition (RAW264.7 [6]): Active; inhibition [7]: Dose-dependent effect; inhibition [8]: Active; inhibition [9]: Active; inhibition [10]: Active
CC(=O)Oc1cc2cccc(OC(C)=O)c(=O)c2c(O)c1OC(C)=O |  |  | 1.42 | 
Oc1ccc(/N=C/c2c(O)ccc3ccccc23)cc1 | > 70 | Non-Toxic |  | 
COC(=O)c1cc(O)c(=O)c2c(O)c(O)ccc2c1 [METHYL 7-DESHYDROXYPYROGALLIN-4-CARBOXYLATE] |  |  | 9.01 | 
